# Data reported in PubChem BioAssay AID2083 (Sanford-Burnham Center for Chemical Genomics, 2009).
# Target: Dual specificity protein phosphatase 1 (Homo sapiens) (UniProt P28562)
# Assay: inhibitors of DUSP1 phosphatase activity – biochemical, DiFMUP, fluorescence, selectivity assay for VHR1 inhibitor project, SAR follow-up (AID 2083)
# Conditions: recombinant MKP-1, DiFMUP fluorescence
# Dual specificity protein phosphatase 1 (Homo sapiens), sequence (P28562 whole entry, looked up): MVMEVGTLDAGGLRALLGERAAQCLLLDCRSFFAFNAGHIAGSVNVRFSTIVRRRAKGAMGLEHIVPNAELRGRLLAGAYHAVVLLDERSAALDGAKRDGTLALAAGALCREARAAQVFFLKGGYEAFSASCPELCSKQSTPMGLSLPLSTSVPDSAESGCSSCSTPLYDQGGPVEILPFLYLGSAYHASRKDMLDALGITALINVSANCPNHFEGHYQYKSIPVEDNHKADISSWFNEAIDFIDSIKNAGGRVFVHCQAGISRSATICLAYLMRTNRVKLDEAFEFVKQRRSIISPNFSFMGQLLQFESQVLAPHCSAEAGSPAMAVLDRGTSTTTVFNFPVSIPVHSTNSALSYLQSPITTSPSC
row,Compound,IC50
1,O=C1/C(=C/c2cn(-c3ccccc3)nc2-c2ccc(OCc3ccccc3Cl)cc2)SC(=S)N1CCS(=O)(=O)O,470 nM
2,O=C1/C(=C/c2cn(-c3ccccc3)nc2-c2ccc(OCc3ccccc3F)cc2)SC(=S)N1CCS(=O)(=O)O,520 nM
3,O=C1/C(=C/c2cn(-c3ccccc3)nc2-c2ccc(S(=O)(=O)N3CCCCC3)cc2)SC(=S)N1CCS(=O)(=O)O,2800 nM
4,O=C1/C(=C/c2cn(-c3ccccc3)nc2-c2ccc(OCc3ccccc3)cc2)SC(=S)N1CCS(=O)(=O)O,780 nM
5,O=C1/C(=C/c2cn(-c3ccccc3)nc2-c2ccc(OCc3ccc(Cl)cc3)cc2)SC(=S)N1CCS(=O)(=O)O,460 nM
